In PubChem BioAssay (NCI):
Where “and” joins values, the source holds several entries; their conditions need not be identical. Equal entries are not always repeated.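 In this assay, cells in 96-well plates receive the compound at five concentrations for 48 hours. Endpoints are linearly interpolated between the surrounding concentrations. At the GI50, growth is halved. TGI is the concentration that stops growth completely.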

How the values were obtained:
Assay in all cases: growth of human tumour cells (NCI), 48 h
[1] = tested on: CCRF-CEM leukemia
[2] = tested on: DU-145 prostate
[3] = tested on: EKVX NSCLC
[4] = tested on: HCT-116 colon
[5] = tested on: HS 578T breast
[6] = tested on: HT29 colon
[7] = tested on: NCI-H460 lung
[8] = tested on: NCI-H522 lung
[9] = tested on: SF-268 CNS
[10] = tested on: SF-295 CNS

SMILES | GI50 [1] [µM] | TGI [1] [µM] | GI50 [2] [µM] | TGI [2] [µM] | GI50 [3] [µM] | TGI [3] | GI50 [4] [µM] | TGI [4] | GI50 [5] [µM] | TGI [5] [µM] | GI50 [6] [µM] | TGI [6] | GI50 [7] [µM] | TGI [7] [µM] | GI50 [8] [µM] | TGI [8] [µM] | GI50 [9] [µM] | TGI [9] | GI50 [10] [µM] | TGI [10]
Cc1cc([C@H](C)Nc2nccc(N3C(=O)OC[C@@H]3[C@H](C)F)n2)ncc1-c1ccnc(C(F)(F)F)c1 | 38.1 | > 100 | 75.6 | > 100 | 19.2 | > 100 µM | 22.7 | > 100 µM | 39.2 | > 100 | 35.6 | > 100 µM | 37.4 | > 100 | 31.7 | > 100 | 54 | > 100 µM | 20.1 | > 100 µM
CN1CCN(CCCOc2ccc3ncnc(Nc4ccc(Oc5cccc(F)c5)c(Cl)c4)c3c2)CC1 | 1.97 | 8.21 | 1.31 | 2.79 | 1.31 | 3.56 µM | 1.51 | 2.86 µM | 1.76 | 4.26 | 1.55 | 4.11 µM | 1.77 | 3.3 | 1.23 | 3.14 | 1.47 | 3.14 µM | 1.8 | 3.25 µM
CCOC(=O)C(=Cc1c(-c2ccccc2)[nH]c2ccccc12)C(=O)OCC | 2.58 | 9.75 | 9.69 | 28.4 | 10.8 | 54.1 µM | 4.25 | 16 µM | 3.53 | 28.8 | 4.56 | 17.1 µM | 3.75 | 13.6 | 3.32 | 11.8 | 7.46 | 28.5 µM | 7.27 | 63.8 µM
NCCn1c2c(c3ccccc3c1=O)C(=O)c1ccccc1-2 | 0.33 | 1.74 |  | 2.58 | 1.48 | 4.48 µM | 0.234 | 1.56 µM | 1.58 | 6.66 | 0.401 | 5.22 µM |  | 6.4 | 1.24 | > 21.7 | 1.32 | 8.99 µM | 0.315 | 1.48 µM
Cc1cc(C)c2nccc(NCCCN(C)C)c2c1[N+](=O)[O-] |  | > 100 |  | > 100 |  | > 100 µM |  | > 100 µM |  | > 100 |  | 41.5 µM |  | > 100 |  | 27.5 |  | 95 µM |  | > 100 µM
COc1ccc(-c2cn(-c3cc(OC)c(OC)c(OC)c3)c(=O)n2-c2ccccc2)cc1 | > 100 | > 100 | > 100 | > 100 | > 100 | > 100 µM | > 100 | > 100 µM | 53.2 | > 100 | 60.6 | > 100 µM | > 100 | > 100 | 66.7 | > 100 | > 100 | > 100 µM | > 100 | > 100 µM
Cc1cc(C(=O)Nc2cc(Nc3ncccc3-c3ncnc4nc[nH]c34)ccc2F)cc(C(C)(C)C#N)c1 | 3.47 | > 100 | 6.2 | > 100 | 4.03 | > 100 µM | 0.151 | > 41.9 µM | 1.92 | > 100 | 0.0739 | > 100 µM | 1.98 | > 100 | 3.54 | > 100 | 7.85 | > 100 µM | 4.45 | > 100 µM
NC(=O)c1c(NC(=O)c2cccc(C(F)(F)F)c2)sc2c1CCC(=O)C2 | 0.163 |  | 3.73 | > 100 | 2.12 | > 100 µM | 0.249 | > 32.2 µM | 0.545 | > 100 | 0.378 | > 100 µM | 0.512 | > 100 | 0.299 | 1.62 | 0.429 | > 100 µM | 1.23 | 9.07 µM
COC12C=C/C(=C(/C(=O)OCc3csc(SC)n3)C(=O)CCCCCCCCC3(OC)C=C/C(=C(/C(=O)OCc4cnc(SC)s4)C(=O)CCCCCCCC1)O3)O2 (configuration not stated) | 0.455 | > 100 | 5.39 | > 100 | 6.38 | > 100 µM | 0.439 | 10.9 µM | 4.52 | 57.6 | 4.41 | > 100 µM | 4.57 | > 100 | 1.5 | 21.1 | 5.75 | > 100 µM | 3.33 | 25.7 µM
Fc1ccc(-c2cc(-c3cn[nH]c3-c3ccccn3)ccn2)cc1 | > 25 | > 25 | > 25 | > 25 | > 25 | > 25 µM | > 17.3 | > 25 µM | > 25 | > 25 | > 25 | > 25 µM | 24.7 | > 25 | > 25 | > 25 | > 25 | > 25 µM | > 25 | > 25 µM
C/C(N=NC(=S)N1CCCCCC1)=C1\C=CC=CN1O |  | 4.93 |  | > 100 |  | > 94.4 µM |  | > 100 µM |  | > 100 |  | > 35.6 µM |  | 31.3 |  | 7.1 |  | > 100 µM |  | > 100 µM
C=C[C@@]1(C)CC(=O)[C@]2(O)[C@@]3(C)[C@@H](O)CCC(C)(C)[C@@H]3[C@H](O)[C@@H](OC(C)=O)[C@@]2(C)O1 |  | > 100 |  | > 100 |  | > 100 µM |  | > 100 µM |  | > 100 |  | > 100 µM |  | > 100 |  | > 100 |  | > 100 µM |  | > 100 µM
O=C1Nc2ccc(Br)cc2C1=Nc1ccc(Cl)cc1 |  | 51.9 |  | > 100 |  | 47.1 µM |  | 62.9 µM |  | > 100 |  | 38.5 µM |  | > 100 |  | 24.6 |  | 55.8 µM |  | 89.2 µM
COC(=O)C1=C(C(=O)OC)C(C(=O)OC)C(C(=O)OC)C(C(=O)OC)(C(=O)OC)C(C(=O)OC)=C1C(=O)OC (configuration not stated) |  | 8.72 |  | 32.1 |  | 35.4 µM |  | 19.6 µM |  | 75.3 |  | 35.3 µM |  | 37.4 |  | 4.07 |  | 42.3 µM |  | 39.9 µM
C=C1C(=O)C23CC1CCC2C12CO[C@@]3(O)[C@@H](O)C1C(C)(C)C=CC2=O (some centres not stated) | 0.759 |  |  | 41.3 | 18.7 | 11.8 µM and 34.7 µM | 2.9 | 1.01 µM and 9.03 µM |  | 81.6 | 2.12 | 0.756 µM and 5.49 µM | 14.7 |  |  | 4.09 | 3.11 | 6.77 µM and 11 µM | 18.1 | 4.79 µM and 32 µM
N#CC1=C(N)Oc2c(sc3c(Br)cccc23)C1c1ccc(F)cc1 (configuration not stated) | 0.381 | 13 | 0.333 | 10.6 | 0.534 | 23.2 µM | 0.409 | 12.3 µM | 0.851 | 52.7 | 0.367 | 10.3 µM | 0.376 | 14.6 | 0.0838 | 13.7 | 1.75 | 24.2 µM | 0.234 | 0.815 µM
